Data reported in ChEMBL document CHEMBL5465560, “Selectivity Literature for EUbOPEN Chemogenomic Library” (2024).

Assays:
[1] = target: T1, Dual specificity mitogen-activated protein kinase kinase 6 (Homo sapiens) (UniProt P52564); assay: Selectivity interaction (Kinase panel (KiNativ target engagement assay in Jurkat cells)) EUB0001635a MAP2K6; format: cell-based; conditions: Selectivity number of off-targets 0.0, Selectivity number of targets 233.0, Source Knowledge https://www.sciencedirect.com/science/article/pii/S2451945619300674?via%3Dihub, at 1 µM
T1 sequence (whole entry): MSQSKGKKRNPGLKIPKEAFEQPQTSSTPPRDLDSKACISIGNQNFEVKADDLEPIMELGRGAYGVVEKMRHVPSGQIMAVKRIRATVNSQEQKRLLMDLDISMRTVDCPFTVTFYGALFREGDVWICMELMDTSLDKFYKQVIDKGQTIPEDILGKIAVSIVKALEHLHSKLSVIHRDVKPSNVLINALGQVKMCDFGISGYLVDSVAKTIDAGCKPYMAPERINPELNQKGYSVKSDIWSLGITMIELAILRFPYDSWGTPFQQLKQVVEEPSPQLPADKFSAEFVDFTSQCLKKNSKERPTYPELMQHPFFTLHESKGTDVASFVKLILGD

[2] = target: T2, Peripheral plasma membrane protein CASK (Homo sapiens) (UniProt O14936); assay: Selectivity interaction (KinomeScan (DiscoverX)) EUB0000229b CASK; conditions: at 10 µM
T2 sequence (whole entry): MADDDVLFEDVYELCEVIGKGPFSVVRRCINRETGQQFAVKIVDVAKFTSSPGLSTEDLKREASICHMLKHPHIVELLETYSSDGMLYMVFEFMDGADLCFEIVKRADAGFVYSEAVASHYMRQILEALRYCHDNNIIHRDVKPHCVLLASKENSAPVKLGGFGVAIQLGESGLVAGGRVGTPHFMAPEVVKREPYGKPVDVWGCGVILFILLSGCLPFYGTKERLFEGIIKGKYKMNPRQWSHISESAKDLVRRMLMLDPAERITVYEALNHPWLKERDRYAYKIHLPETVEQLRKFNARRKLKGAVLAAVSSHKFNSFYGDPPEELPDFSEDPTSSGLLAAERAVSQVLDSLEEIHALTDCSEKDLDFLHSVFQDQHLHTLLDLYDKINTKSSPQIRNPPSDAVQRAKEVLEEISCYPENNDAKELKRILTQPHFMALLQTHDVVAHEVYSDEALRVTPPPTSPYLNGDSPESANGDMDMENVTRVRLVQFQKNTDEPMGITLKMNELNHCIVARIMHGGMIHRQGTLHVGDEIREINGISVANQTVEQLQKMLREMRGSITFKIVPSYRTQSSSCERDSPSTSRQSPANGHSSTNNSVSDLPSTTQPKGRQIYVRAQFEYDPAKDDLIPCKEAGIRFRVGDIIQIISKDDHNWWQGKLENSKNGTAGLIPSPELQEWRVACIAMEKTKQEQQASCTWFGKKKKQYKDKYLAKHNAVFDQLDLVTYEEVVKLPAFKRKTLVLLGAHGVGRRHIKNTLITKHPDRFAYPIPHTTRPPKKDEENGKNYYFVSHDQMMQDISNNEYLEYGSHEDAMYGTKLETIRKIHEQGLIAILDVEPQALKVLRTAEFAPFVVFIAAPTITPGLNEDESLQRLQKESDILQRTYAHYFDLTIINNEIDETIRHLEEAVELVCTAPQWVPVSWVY

[3] = target: T3, Serine/threonine-protein kinase BRSK2 (Homo sapiens) (UniProt Q8IWQ3); conditions: at 10 µM
T3 sequence (whole entry): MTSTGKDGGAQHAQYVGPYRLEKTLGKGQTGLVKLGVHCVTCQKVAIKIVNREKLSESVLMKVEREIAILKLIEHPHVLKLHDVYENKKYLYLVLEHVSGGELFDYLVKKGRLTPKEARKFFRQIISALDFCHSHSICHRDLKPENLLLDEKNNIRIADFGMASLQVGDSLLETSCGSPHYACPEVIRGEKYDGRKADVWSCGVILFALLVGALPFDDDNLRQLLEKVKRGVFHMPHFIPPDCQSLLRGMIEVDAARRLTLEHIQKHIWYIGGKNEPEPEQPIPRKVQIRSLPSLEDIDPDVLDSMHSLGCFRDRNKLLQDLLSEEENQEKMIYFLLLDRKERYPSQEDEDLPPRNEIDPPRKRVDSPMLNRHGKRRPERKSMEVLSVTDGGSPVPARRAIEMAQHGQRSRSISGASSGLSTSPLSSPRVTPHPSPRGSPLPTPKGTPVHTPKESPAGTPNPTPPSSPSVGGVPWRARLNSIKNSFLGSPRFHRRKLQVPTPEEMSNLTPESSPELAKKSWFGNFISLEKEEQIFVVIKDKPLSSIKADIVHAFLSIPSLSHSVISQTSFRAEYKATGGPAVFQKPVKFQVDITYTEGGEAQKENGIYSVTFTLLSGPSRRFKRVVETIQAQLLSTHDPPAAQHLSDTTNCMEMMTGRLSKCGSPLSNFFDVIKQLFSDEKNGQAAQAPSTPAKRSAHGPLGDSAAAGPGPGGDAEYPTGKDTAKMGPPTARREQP

[4] = target: TGF-beta receptor type-2 (Homo sapiens) (UniProt P37173); conditions: at 10 µM
Sequence of TGF-beta receptor type-2 (Homo sapiens) (P37173 whole entry): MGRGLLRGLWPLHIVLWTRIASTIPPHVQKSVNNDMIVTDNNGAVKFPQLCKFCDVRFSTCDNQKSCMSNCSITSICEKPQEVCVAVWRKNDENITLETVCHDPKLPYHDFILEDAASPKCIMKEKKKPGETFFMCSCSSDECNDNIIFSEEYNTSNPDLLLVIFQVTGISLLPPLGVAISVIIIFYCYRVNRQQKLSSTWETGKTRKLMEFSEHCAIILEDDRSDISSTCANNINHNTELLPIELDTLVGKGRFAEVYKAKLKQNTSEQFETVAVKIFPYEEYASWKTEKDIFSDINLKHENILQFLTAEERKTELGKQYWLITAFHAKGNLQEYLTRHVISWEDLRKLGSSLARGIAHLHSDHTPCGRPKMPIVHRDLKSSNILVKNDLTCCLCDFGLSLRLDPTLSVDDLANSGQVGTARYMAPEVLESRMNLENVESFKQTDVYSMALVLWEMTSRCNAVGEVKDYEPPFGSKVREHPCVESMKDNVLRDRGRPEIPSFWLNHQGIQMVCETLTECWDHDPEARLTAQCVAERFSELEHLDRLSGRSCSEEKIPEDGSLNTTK

[5] = target: RAC-gamma serine/threonine-protein kinase (Homo sapiens, UniProt Q9Y243); assay: Selectivity interaction (Kinase panel (DSF assay)) EUB0001559a AKT3
Sequence of RAC-gamma serine/threonine-protein kinase (Q9Y243 whole entry): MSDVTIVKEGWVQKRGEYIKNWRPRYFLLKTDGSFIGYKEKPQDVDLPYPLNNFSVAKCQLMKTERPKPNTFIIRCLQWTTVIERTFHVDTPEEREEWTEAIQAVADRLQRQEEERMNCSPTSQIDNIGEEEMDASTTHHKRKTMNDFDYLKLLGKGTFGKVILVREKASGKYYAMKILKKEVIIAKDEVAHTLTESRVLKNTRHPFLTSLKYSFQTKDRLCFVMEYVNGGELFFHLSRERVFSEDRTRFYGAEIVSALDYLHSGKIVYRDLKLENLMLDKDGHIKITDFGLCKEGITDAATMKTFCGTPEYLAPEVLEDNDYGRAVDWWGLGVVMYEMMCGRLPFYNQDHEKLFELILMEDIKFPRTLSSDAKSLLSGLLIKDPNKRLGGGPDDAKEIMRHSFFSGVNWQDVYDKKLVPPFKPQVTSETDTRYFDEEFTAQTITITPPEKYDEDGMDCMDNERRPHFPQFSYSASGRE

Insulin receptor = Insulin receptor (Homo sapiens, UniProt P06213); assay: Selectivity interaction (KinomeScan (DiscoverX)) EUB0001079a INSR; conditions: at 1 µM
[6] = target: L-type calcium channel Cav1.2 (CACNA1C) (Homo sapiens, UniProt Q13936); assay: Selectivity interaction (Eurofins CEREP Diversity Profile (receptors and ion channels)) EUB0000279b CACNA1C; conditions: at 10 µM, read-out: % of control
[7] = target: LIM domain kinase 1 (Homo sapiens) (UniProt P53667); assay: Selectivity interaction (Upstate Kinase Profiler service (Millipore)) EUB0000056c LIMK1; conditions: at 1 µM
Sequence of LIM domain kinase 1 (Homo sapiens) (P53667 whole entry, looked up, the tested form may be a part): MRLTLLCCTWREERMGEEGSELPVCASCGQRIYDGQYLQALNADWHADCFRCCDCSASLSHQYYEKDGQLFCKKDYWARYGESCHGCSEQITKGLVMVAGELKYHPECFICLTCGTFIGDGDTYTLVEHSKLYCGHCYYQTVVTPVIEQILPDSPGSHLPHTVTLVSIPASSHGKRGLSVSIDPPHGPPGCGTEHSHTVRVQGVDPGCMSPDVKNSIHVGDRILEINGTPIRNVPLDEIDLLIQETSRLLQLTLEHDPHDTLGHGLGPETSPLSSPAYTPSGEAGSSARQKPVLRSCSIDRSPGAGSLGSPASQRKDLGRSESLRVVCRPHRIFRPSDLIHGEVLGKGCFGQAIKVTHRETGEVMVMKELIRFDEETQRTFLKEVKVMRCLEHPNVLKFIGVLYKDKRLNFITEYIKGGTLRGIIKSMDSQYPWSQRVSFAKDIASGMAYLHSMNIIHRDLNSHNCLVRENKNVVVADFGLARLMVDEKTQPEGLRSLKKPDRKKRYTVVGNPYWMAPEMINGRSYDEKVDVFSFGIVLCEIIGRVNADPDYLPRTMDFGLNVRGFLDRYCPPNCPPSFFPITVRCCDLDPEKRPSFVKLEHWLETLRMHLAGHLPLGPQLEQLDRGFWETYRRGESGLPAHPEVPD

[8] = target: Platelet-derived growth factor receptor alpha (Homo sapiens, UniProt P16234); assay: Selectivity interaction (Kinase panel (33PanQinase(R) Activity Assay)) EUB0000877a PDGFRA
Sequence of Platelet-derived growth factor receptor alpha (P16234 whole entry): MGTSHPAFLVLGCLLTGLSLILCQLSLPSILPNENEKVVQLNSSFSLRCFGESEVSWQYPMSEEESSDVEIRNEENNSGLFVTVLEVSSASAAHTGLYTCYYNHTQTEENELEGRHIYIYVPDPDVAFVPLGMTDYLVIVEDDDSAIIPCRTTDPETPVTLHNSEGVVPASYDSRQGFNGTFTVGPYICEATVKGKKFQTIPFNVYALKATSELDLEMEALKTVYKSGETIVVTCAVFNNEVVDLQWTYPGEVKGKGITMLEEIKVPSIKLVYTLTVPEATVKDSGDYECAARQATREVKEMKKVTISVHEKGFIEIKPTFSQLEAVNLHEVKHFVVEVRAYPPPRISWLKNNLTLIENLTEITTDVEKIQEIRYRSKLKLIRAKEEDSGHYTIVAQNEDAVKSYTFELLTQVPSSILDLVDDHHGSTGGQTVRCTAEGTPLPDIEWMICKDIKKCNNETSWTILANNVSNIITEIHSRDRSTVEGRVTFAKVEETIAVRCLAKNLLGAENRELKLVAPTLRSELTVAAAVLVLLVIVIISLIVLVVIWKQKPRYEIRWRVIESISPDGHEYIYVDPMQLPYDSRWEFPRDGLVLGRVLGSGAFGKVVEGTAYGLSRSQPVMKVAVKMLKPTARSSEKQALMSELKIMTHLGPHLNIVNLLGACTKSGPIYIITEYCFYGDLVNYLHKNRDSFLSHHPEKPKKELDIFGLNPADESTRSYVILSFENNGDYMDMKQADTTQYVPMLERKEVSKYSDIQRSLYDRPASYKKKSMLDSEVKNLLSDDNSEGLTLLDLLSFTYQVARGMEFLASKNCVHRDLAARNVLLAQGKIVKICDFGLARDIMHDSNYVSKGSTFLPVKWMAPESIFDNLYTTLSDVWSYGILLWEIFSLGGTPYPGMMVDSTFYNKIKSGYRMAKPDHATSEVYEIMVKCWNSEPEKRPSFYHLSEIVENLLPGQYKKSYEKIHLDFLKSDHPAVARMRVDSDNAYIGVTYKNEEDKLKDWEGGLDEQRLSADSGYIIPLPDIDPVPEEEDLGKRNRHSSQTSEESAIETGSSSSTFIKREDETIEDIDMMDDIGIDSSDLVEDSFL

[9] = target: Bone morphogenetic protein receptor type-1A (Homo sapiens, UniProt P36894); assay: Selectivity interaction (ProQinase) EUB0000171b BMPR1A
Sequence of Bone morphogenetic protein receptor type-1A (P36894 whole entry): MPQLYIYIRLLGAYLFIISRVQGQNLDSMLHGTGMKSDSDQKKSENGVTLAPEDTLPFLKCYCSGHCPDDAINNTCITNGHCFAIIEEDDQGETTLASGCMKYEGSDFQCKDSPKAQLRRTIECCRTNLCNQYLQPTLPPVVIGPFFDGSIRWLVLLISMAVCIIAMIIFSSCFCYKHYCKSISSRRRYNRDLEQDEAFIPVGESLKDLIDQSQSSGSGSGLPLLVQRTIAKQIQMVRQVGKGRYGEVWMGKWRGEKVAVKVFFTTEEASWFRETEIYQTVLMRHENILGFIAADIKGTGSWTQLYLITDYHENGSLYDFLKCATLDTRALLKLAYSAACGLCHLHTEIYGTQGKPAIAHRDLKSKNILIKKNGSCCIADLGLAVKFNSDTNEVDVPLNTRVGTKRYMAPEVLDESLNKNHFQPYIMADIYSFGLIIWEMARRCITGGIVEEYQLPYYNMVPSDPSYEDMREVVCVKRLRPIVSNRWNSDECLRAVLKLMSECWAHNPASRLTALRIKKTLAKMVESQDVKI

[10] = target: Protein kinase C eta type (Homo sapiens) (UniProt P24723); assay: Selectivity interaction (KinomeScan (DiscoverX)) EUB0000607a PRKCH; conditions: at 10 µM
[11] = target: Serine/threonine-protein kinase MRCK gamma (Homo sapiens) (UniProt Q6DT37); assay: Selectivity interaction (KinomeScan (DiscoverX)) EUB0000618a CDC42BPG; conditions: at 10 µM
Sequence of Serine/threonine-protein kinase MRCK gamma (Homo sapiens) (Q6DT37 whole entry): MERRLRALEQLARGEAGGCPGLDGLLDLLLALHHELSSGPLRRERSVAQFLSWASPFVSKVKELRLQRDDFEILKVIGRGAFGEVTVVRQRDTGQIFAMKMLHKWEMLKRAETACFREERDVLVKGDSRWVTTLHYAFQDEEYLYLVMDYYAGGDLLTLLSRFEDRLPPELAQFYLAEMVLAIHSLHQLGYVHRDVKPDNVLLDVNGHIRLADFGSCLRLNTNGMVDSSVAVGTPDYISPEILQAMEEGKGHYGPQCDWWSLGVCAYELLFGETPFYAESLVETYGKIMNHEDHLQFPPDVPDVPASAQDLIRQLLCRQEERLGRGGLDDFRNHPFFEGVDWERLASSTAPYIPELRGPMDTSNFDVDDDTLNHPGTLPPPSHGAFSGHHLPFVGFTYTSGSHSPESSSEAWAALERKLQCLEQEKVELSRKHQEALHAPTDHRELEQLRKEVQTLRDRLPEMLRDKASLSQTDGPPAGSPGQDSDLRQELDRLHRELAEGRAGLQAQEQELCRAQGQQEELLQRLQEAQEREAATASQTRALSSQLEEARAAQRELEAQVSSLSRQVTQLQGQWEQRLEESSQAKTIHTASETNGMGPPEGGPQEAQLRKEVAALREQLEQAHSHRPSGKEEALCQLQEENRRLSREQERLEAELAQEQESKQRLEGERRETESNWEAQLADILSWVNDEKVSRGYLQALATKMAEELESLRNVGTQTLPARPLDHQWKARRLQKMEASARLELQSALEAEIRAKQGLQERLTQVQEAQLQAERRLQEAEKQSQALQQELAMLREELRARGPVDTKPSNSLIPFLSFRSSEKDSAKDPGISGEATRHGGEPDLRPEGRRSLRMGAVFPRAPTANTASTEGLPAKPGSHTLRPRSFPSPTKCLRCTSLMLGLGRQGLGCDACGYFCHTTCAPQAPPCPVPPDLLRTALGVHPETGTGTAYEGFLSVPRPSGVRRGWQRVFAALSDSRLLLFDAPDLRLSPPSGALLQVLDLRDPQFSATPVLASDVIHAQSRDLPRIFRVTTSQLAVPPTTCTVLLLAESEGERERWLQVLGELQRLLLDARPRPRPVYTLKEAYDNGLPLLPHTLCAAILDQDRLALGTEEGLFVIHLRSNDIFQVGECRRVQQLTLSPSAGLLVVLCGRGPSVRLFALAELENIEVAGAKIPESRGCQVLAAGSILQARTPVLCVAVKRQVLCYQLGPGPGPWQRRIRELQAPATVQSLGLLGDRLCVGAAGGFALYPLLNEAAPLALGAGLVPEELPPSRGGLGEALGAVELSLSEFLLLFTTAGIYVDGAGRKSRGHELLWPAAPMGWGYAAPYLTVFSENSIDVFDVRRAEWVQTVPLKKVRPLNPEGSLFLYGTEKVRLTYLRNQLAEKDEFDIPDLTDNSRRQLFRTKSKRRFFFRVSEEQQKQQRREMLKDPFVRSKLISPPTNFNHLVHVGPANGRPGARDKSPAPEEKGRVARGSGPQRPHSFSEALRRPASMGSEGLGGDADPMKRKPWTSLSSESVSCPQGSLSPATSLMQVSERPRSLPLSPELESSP

[12] = target: Homeodomain-interacting protein kinase 1 (Homo sapiens, UniProt Q86Z02); assay: Selectivity interaction (Ambit KINOMEscan and KiNATiv profiling in Jurkat cells) EUB0000090b HIPK1; format: cell-based; conditions: at 1 µM

Structure (SMILES): C=CC(=O)Nc1ccc(C(=O)Nc2[nH]nc3c2CN(C(=O)N[C@H](CN(C)C)c2ccccc2)C3(C)C)cc1
- % of engagement [1]: 2.8%

Structure (SMILES): COc1cc(N(C)c2ccnc3ccc(C(F)(F)F)cc23)cc(OC)c1OC
- % binding [2]: 55%

Structure (SMILES): COCC(=O)NC/C=C/c1ccc2ncnc(Nc3ccc(Oc4ccc(C)nc4)c(C)c3)c2c1 [CP-724714]
- % of control [3]: 100%
- % of control [4]: 94%

Structure (SMILES): CN(C(=O)c1cnn2cccnc12)c1cc2c(cc1N1CCOCC1)C(=O)N(C[C@@H](F)C(C)(C)O)C2
- dTM [5]: 0 K

Structure (SMILES): Nc1cnc(N2CCc3cc(S(=O)(=O)Nc4c(F)cc(Cl)cc4F)cc(N4CCCC4=O)c32)nc1 [TP-020n]
- % of control (Insulin receptor): 89%

Structure (SMILES): CC(=O)c1cc(-c2ccccc2OCC2CC2)c2ncccn12
- activity [6]: 89%

Structure (SMILES): Cc1ccc(-c2ccc3c(ccc4sc5c(c43)NC[C@@H](C)NC5=O)n2)cn1
- % of inhibition [7]: 4%

Structure (SMILES): CCC(=O)N1CC[C@H](Nc2ncnc3c2CN(c2cnc(OC)c(C(F)(F)F)c2)CC3)C1 [LENIOLISIB]
- IC50 [8]: > 10 µM

Structure (SMILES): C=CC(=O)Nc1cccc(C(=O)Nc2ccc(Nc3cc(-c4[nH]c(SC)nc4C)ccn3)cc2)c1
- % of control ([9]; at 1 µM): 83%
- % of control ([9]; at 5 µM): 88%

Structure (SMILES): CNC(=O)Nc1ccc(-c2nc(N3CC4CCC(C3)O4)c3cnn(C4CCC5(CC4)OCCO5)c3n2)cc1
- % of control [10]: 91%

Structure (SMILES): O[C@H]1CC[C@H](Nc2ncc3nc(Nc4c(F)cc(F)cc4F)n([C@H]4CCOC4)c3n2)CC1
- % of control [11]: 81%

Structure (SMILES): CN(C)C/C=C/C(=O)Nc1ccc(C(=O)N2CCCC(Nc3ncc(Cl)c(-c4c[nH]c5ccccc45)n3)C2)cc1 (centres undefined)
- % of control [12]: 80%
